Assay results reported in PubChem BioAssay AID1996.
≈ marks a conversion by molar mass, not a printed value.

Details: buffer; pH 7.4; 200.0 µM

SMILES	solubility kinetic [mg/mL]
Cc1ccccc1NC(=S)Nc1cccc2cnccc12	0.0342 (≈ 117 µM)
Cc1cc(N2CCN(c3ncccn3)CC2)nc2c(C)cccc12	0.0002 (≈ 0.626 µM)
CN(C1=NC(=O)CS1)c1ccc(O)cc1	> 0.0333
Cc1ccc(/C=C2\SC(=S)N(C3CCS(=O)(=O)C3)C2=O)cc1 (stereo not drawn)	< 0.0008
CC(NC(=O)c1cc(-c2ccccc2)nc2ccccc12)C1CCCO1 (stereo not drawn)	> 0.052
O=S(=O)(NCc1csc(-c2cccs2)n1)c1cccs1	0.049 (≈ 143 µM)
Cn1c(Cl)c(/C=N/OC(=O)C(C)(C)C)c2ccccc21	0.0007 (≈ 2.39 µM)
Cc1noc(C)c1COc1ccc(C(=O)N2CCCC(C(N)=O)C2)cc1 (stereo not drawn)	> 0.0536
CCOC(=O)C1CCN(C(=O)COC(=O)/C=C/c2cccc(OC)c2OC)CC1	0.0605 (≈ 149 µM)
C=CCSc1nnc(NC(=O)C2=COCCO2)s1	> 0.0428
O=C(CN1C(=O)NC2(CCCC2)C1=O)N1CCN(c2ccccc2O)CC1	> 0.0559
Cc1cccc(NC(=O)c2ccc(Cl)nc2)n1	> 0.0372
O=C(COC(=O)C1=COCCO1)Nc1ccc(F)c(F)c1	0.0046 (≈ 15.4 µM)
Cc1noc(C)c1C(=O)OCC(=O)N(C)C1(C#N)CCCCC1	> 0.0479
CN1CCCN(C(=O)COc2ccccc2)CC1	> 0.0372
CN1CCN(C(=O)CNC(=O)c2cccs2)CC1	> 0.0401
O=C(NCCc1ccccc1)C1CC1	> 0.0284
Cc1cc(C)n2nc(SCC(=O)N3CCCC(C)C3)nc2n1 (stereo not drawn)	> 0.0479
O=C(Cn1cc([N+](=O)[O-])cn1)NCCc1nc2ccccc2[nH]1	> 0.0471
CCN1CCN(Cc2cc3c(cc2[N+](=O)[O-])OCO3)CC1	0.0411 (≈ 140 µM)
CCCC(=O)NC(c1ccc(C)cc1)c1ccc2cccnc2c1O (stereo not drawn)	0.0012 (≈ 3.59 µM)
COc1ccc(Nc2nnc(SC(C)C(=O)NC3CC3)s2)cc1 (stereo not drawn)	> 0.0526
CC(=O)N1CCN(C(=O)C2CCN(S(=O)(=O)c3ccccc3C(F)(F)F)CC2)CC1	> 0.0671
Cc1cccc(OCC(O)CN2CCc3ccccc3C2)c1.Cl (stereo not drawn)	> 0.0501

SMILES	solubility kinetic [mg/mL]
N#Cc1ccc(C(=O)Nc2cccc(S(=O)(=O)NC3=NCCC3)c2)cc1	0.0237 (≈ 64.3 µM)
O=C(c1cc(-c2ccccc2)on1)N1CCC2(CC1)OCCO2	> 0.0472
COc1ccc(C(=O)N=c2sc3ccccc3n2C)cc1	< 0.0003
O=C(CSCc1ccccc1)Nc1ccc(F)cc1F	0.041 (≈ 140 µM)
O=C(CNC(=O)c1ccc(Cl)cc1)c1ccc(Br)cc1	< 0.0008
Cc1ccc(CCN2CC(C(=O)NC(C)C)CC2=O)cc1 (stereo not drawn)	> 0.0433
O=C(NCCOc1ccc(Cl)cc1)c1ccc2c(c1)OCCO2	0.0063 (≈ 18.9 µM)
Fc1ccccc1-c1csc(-c2cccnc2)n1	0.0004 (≈ 1.56 µM)
CC1CCCC(C)N1C(=O)c1cc(-c2ccco2)on1 (stereo not drawn)	> 0.0411
O=C(Nc1ncccn1)c1cccc(Cl)c1	0.0236 (≈ 101 µM)
Cc1ccc2oc(=O)cc(CN3CCN(Cc4ccccc4)CC3)c2c1	0.0195 (≈ 56 µM)
COc1ccc2oc(C(=O)OC(C)C(=O)N3C(C)CCCC3C)c(C)c2c1 (stereo not drawn)	0.0084 (≈ 22.5 µM)
CC(=O)c1c(C)[nH]c(C(=O)COC(=O)c2cc(C)oc2C)c1C	0.0131 (≈ 41.3 µM)
O=C(/C=C/c1ccc2c(c1)OCO2)N1CCCCC1	> 0.0389
O=C(COC(=O)CCSc1ccccc1)Nc1ccccc1Br	0.0182 (≈ 46.2 µM)
Cc1ccc2[nH]c(=S)n(-c3cccnc3)c(=O)c2c1	0.0028 (≈ 10.4 µM)
NC(=O)[C@@H]1CCCN1Cc1nc(Cc2ccccc2F)no1	> 0.0456
CC1CCCCC1NC(=O)CNC(=O)c1cccs1 (stereo not drawn)	> 0.0421
O=c1cnnc(Nc2ccccc2)[nH]1	> 0.0282
CC(C)CN1CCCC(N2CCN(c3cccc(Cl)c3)CC2)C1 (stereo not drawn)	0.0398 (≈ 118 µM)
O=C(O)c1cccc(Nc2ccncc2[N+](=O)[O-])c1	> 0.0389
CC(C)c1ccc(C(=O)NCCCNC(=O)c2cnccn2)cc1	> 0.049
O=S(=O)(Cc1ccc(Cl)cc1)NCc1cccnc1	> 0.0445
CC(=O)N1CCN(CC(O)Cn2c3ccccc3c3ccccc32)CC1 (stereo not drawn)	> 0.0527
